Test results published in US20220395553A1, “CXCR4 ANTAGONIST PEPTIDES” (COHBAR, INC., priority 2019, published 2022).

Tests used:
3T3-L1 Mouse Adipocytes = assay: Free fatty acid levels in cultured mouse adipocytes; type: cell-based; conditions: insulin 100 nM
Procedure: The effect of the peptides on fatty acid metabolism can be assessed using an assay of free fatty acid levels in cultured cells such as mouse adipocytes. Peptides were initially prepared as 10 mM stock in DMSO and used at a final concentration of 10 μM (0.1% DMSO). […] Mouse 3T3-L1 cells purchased from ZenBio were seeded at 3,000 cells per well in 96-well plates in Pre-adipocyte Medium (Zen-Bio) and grown to confluence at 37° C. in a humidified atmosphere of 5% CO2/95% air. Two days after confluence, cells were placed in Adipocyte Differentiation Medium (Zen-Bio) and cultured for three additional days at 37° C. in a humidified atmosphere of 5% CO2/95% air. The culture media was then replaced with Adipocyte Maintenance Medium (Zen-Bio) and the cells maintained for an additional 9-12 days at 37° C. in a humidified atmosphere of 5% CO2/95% air with partial medium replacement every other day. Following 12-15 days of differentiation, test peptides were added at a final concentration of 10 μM in 0.1% DMSO and incubated for 20-22 hours in Adipocyte Maintenance Medium at 37° C. in a humidified atmosphere of 5% CO2/95% air. After 20-22 hours, 1 nM isoproterenol was added to all wells except untreated controls and test peptides were replenished. Insulin at 100 nM was added to control wells. Cells were incubated for 3 hours in Assay Buffer (Zen-Bio) at 37° C. in a humidified atmosphere of 5% CO2/95% air. Free fatty acid concentrations in the media were determined using a Free Fatty Acid Assay kit (Zen-Bio) according to the manufacturer's instructions using a Cytation 3 plate reader at 540 nm (BioTek, Winooski, Vt.). Absorbance values were corrected for untreated background and expressed relative to isoproterenol treated cells. Treatment with isoproterenol (1 nM) alone was used as the free fatty acid level stimulatory control. The relative standard deviation of the isoproterenol control was <10%. […] Free fatty acid levels for insulin (100 nM) treatment were <5% of the isoproterenol control value.

U937 cells = assay: CXCL12 mediated cell migration, U937 cells; type: cell-based, human; conditions: Homo sapiens, U-937, 4 h, read-out: Percent Inhibition of CXCL12 Mediated Migration
Procedure: Peptides were initially prepared as 1 mM stock in H2O and tested at a final concentration of 1 μM. […] U937 cells were resuspended in serum free media containing 0.5% bovine serum albumin (RPMI+GlutaMax (Gibco/Thermo Fisher Scientific, Gaithersburg, Md.)) at density of 5×10^6 cells/ml. […] Following the 4 hour incubation period the filter inserts were carefully removed and the migration of cells across the filter into the bottom chamber (receiver wells) was determined by measuring ATP levels using Cell TiterGlo 2.0, according to manufacturer's instructions (Promega, Madison, Wis.); luminescence measured using a Cytation 3 plate reader (BioTek, Winooski, Vt.).

[1] = tested on: CXCR4/CXCL12 induced p-MEK; assay: CXCR4/CXCL12 induced p-MEK in Jurkat cells (ELISA); type: cell-based, human; conditions: Homo sapiens, Jurkat, 5 min
Method in brief: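 Jurkat cells in RPMI+GlutaMax containing 10% FBS and 1% penicillin/streptomycin, fresh or conditioned, were resuspended at 2×10^6 cells/ml and […] aliquots placed in tubes. After a 5 min stimulation they were pelleted, rinsed with HBSS and lysed with PMSF and protease/phosphatase inhibitors. Phospho-MEK1 (Ser217/221) was quantified by sandwich ELISA with absorbance read at 450 nm.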

Jurkat cells = assay: CXCL12 mediated cell migration, Jurkat cells; type: cell-based, human; conditions: Homo sapiens, Jurkat, 1 h, read-out: Percent Inhibition of CXCL12 Mediated Migration (1.1 μM Test Article)
Method in brief: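 Jurkat cells in serum-free RPMI with 0.5% BSA, 250,000 per upper chamber of a 5 μm Transwell, with peptides at 1.1 μM final. Migration toward CXCL12 ran 1 h at 37 °C in 5% CO2. Cells reaching the lower chamber quantified by ATP luminescence (CellTiter-Glo 2.0).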

C2C12 Mouse Myoblasts = assay: Glucose utilization in C2C12 mouse myoblasts; type: cell-based; conditions: metformin 1 mM
Procedure: The effect of the peptides on glucose metabolism can be assessed using an assay of glucose utilization in cultured cultured cells such as mouse myoblasts. Peptides were initially prepared as 10 mM stock in DMSO and used at a final concentration of 10 μM (0.1% DMSO). C2C12 mouse myoblast cell line was purchased from American Type Culture Collection (Manassas, Va.). C2C12 cultures were maintained at 37° C. in a humidified atmosphere of 5% CO2/95% air with medium changes every second day. C2C12 cells were grown in DMEM (1 g/L glucose) supplemented with 10% FBS with 100 IU/ml penicillin and 100 μg/ml streptomycin. C2C12 cells were seeded at 7,000 cells per well on 96-well plates and cultured to confluence. Once the cell reached confluence the media was changed to DMEM (1 g/L glucose) supplemented with 2% HS with 100 IU/ml penicillin and 100 μg/ml streptomycin and maintained at 37° C. in a humidified atmosphere of 5% CO2/95% air, 5 days post-induction of differentiation fresh DMEM (1 g/L glucose) supplemented with 2% HS with 100 IU/ml penicillin and 100 μg/ml streptomycin was added to cultures. Cells were maintained at 37° C. in a humidified atmosphere of 5% CO2 and 95% air for 5 hours. After 5 hours test peptides at 10 μM or controls (0.5 mM or 1 mM metformin in 1% DMSO) prepared in fresh differentiation medium were added to cells and the cultures were maintained at 37° C. in a humidified atmosphere of 5% CO2/95% air for 18-22 hours. At the end of the incubation culture media was removed from the cells and the remaining glucose concentration was measured using a Glucose Assay kit (Abcam) according to the manufacturer's instructions, using a Cytation 3 plate reader at 570 nm (BioTek, Winooski, Vt.). Glucose concentrations in the medium were calculated relative to 0.1% DMSO treated control cells. The relative standard deviation of the result for the 0.1% DMSO treated control was <20%. Metformin was used as a positive control for reduction of glucose levels (increased glucose utilization glucose levels for treatment with metformin (1 mM) treatment were <20% of the 0.1% DMSO treated control value. The results are reported in Table 7.

Rat H-4-II-E Cells = assay: TBHP-induced reactive oxygen species (DCFDA); type: cell-based; conditions: sulforaphane 10 uM
Procedure: The protective or synergistic effect of the peptides on cellular levels of reactive oxygen species (ROS) induced by oxidative stress can be assessed using an assay of ROS in cultured cells exposed to a suitable oxidative stress. Peptides were initially prepared as 10 mM stock in DMSO and tested at a final concentration of 10 μM (0.1% DMSO). […] TBHP was used at final concentration of […]. Sulforaphane was used at a final concentration of 10 uM as a protective antioxidant control against TBHP induced ROS production. DCFDA Cellular ROS Detection Assay kit was purchased from […]. H-4-II-E rat liver hepatoma cell line was purchased from American Type Culture Collection (Manassas, Va.). H-4-II-E cells were grown in DMEM supplemented with 10% FBS with 100 IU/ml penicillin and 100 μg/ml streptomycin. Cultures were maintained at 37° C. in a humidified atmosphere of 5% CO2/95% air. H-4-II-E cells were seeded at 15,000-20,000 cells per well on 96-well plates. The next day cells were incubated with test peptides at 10 μM in 0.1% DMSO or sulforaphane at 10 uM and maintained at 37° C. in a humidified atmosphere of 5% CO2/95% air for 18-20 hours. After 18-20 hours of incubation the cells were loaded with DCFDA for 45 min. TBHP at 100 μM was then added to the appropriate wells for 1 hour. ROS activity was determined using a DCFDA Cellular ROS Detection Assay kit (Abcam) according to the manufacturer's instructions. Fluorescence in each sample well on the plate was measured using a Cytation 3 plate reader at Ex/Em=485/535 nm (BioTek, Winooski, Vt.). Activity was calculated relative to TBHP control. […] Activity was calculated relative to THBP treated control.

[2] = Cell viability, PrestoBlue assay; type: cell-based; conditions: human; read-out: Cell viability, % of background corrected DMSO control value
Procedure: The effect of the peptides on cell viability can be assessed in cultured cells using suitable assay of viability such as the PrestoBlue® assay (Thermo Fisher Scientific, Waltham, Mass.). Peptides were initially prepared as 10 mM stock in DMSO and tested at a final concentration of 10 μM (0.1% DMSO). […] PrestoBlue Assay Reagent was purchased from Thermo Fisher Scientific. A172 human brain glioblastoma cell line was purchased from American Type Culture Collection (Manassas, Va.). A172 cells were grown in DMEM supplemented with 10% FBS with 100 IU/ml penicillin and 100 μg/ml streptomycin. Cultures were maintained at 37° C. in a humidified atmosphere of 5% CO2/95% air. A172 cells were seeded at 8,000 cells per well on 96-well plates. […] Cell viability was determined using a PrestoBlue Assay reagent […] according to the manufacturer's instructions. Absorption for each sample well on the plate was measured using a Cytation 3 plate reader at 560 nm and 590 nm (BioTek, Winooski, Vt.). Activity was calculated relative to 0.1% DMSO untreated control. Treatment with 0.1% DMSO alone was used as the cell viability activity control. The relative standard deviation of the DMSO control was <5%.

[3] = tested on: SH-SY5Y Neuroblastoma Cells; assay: ATP levels (CellTiter-Glo); type: cell-based, human; conditions: staurosporine 1 μM
Procedure: The effect of the peptides on cellular metabolism can be assessed using an assay of ATP levels in cultured cells such as human neuroblastoma cells. Peptides were initially prepared as 10 mM stock in DMSO and used at a final concentration of 10 μM (0.1% DMSO). […] CellTiter-Glo® Assay kit was purchased from Promega. SH-SY5Y human bone marrow neuroblastoma cell line was purchased from American Type Culture Collection (Manassas, Va.) and licensed from Memorial Sloan-Kettering Cancer Center (New York, N.Y.). SH-SY5Y cells were grown in DMEM/F12 medium supplemented with 10% FBS with 100 IU/ml penicillin and 100 μg/ml streptomycin. Cultures were maintained at 37° C. in a humidified atmosphere of 5% CO2/95% air. SH-SY5Y cells were seeded at 30,000 cells per well on 96-well plates. […] ATP levels were determined using a CellTiter-Glo Assay kit (Promega) according to the manufacturer's instructions. Luminescence for each sample well on the plate was measured using a Cytation 3 plate reader (BioTek, Winooski, Vt.). Activity was calculated relative to 0.1% DMSO treated control. The relative standard deviation of the result for the 0.1% DMSO treated control was <5%.

Question: With Insulin [reference compound] as the molecule, how does the “Free fatty acid levels, % of isoproterenol control value” (3T3-L1 Mouse Adipocytes) read?
Answer: < 5%

Question: With `c1cc(CN2CCCNCCNCCCNCC2)ccc1CN1CCCNCCNCCCNCC1` [AMD3100, reference compound] as the molecule, how does the inhibition at 30 µM (U937 cells) read?
Answer: 99%

Question: What about the inhibition at 0.1 µM ([1]; read-out: Percent Inhibition of CXCR4/CXCL12 Induced p-MEK (100 nM Test Article)) of the same molecule?
Answer: 79%

Question: What about the inhibition at 1 µM ([1]; read-out: Percent Inhibition of CXCR4/CXCL12 Induced p-MEK (1 μM Test Article)) of the same molecule?
Answer: 91%

Question: What about the inhibition at 1.1 µM (Jurkat cells) of the same molecule?
Answer: 91%

Question: Which “Glucose levels, % of 0.1% DMSO treated control value” (C2C12 Mouse Myoblasts) does the source give for `CN(C)C(=N)N=C(N)N` [metformin, Metformin, reference compound] here?
Answer: < 20%

Question: Which “ROS levels, % of the THBP-induced ROS level” value (Rat H-4-II-E Cells) does the source give for `C[S+]([O-])CCCCN=C=S` (stereo not drawn) [sulphorophane, Sulforaphane, reference compound] here?
Answer: 45.5%

Question: For `CN[C@@H]1C[C@H]2O[C@@](C)([C@@H]1OC)n1c3ccccc3c3c4c(c5c6ccccc6n2c5c31)C(=O)NC4` [staurosporine, Staurosporine, reference compound], which viability at 1 µM [2] is on record?
Answer: < 75%

Question: What about the “ATP levels, % of 0.1% DMSO treated control value” [3] of the same molecule?
Answer: < 5%
